Results taken from publication PMC8344022, “Small-molecule inhibitor of AF9/ENL-DOT1L/AF4/AFF4 interactions suppresses malignant gene expression and tumor growth” (Theranostics, 2021).
Like-named read-outs stand apart in the source and are kept apart here.

Assays:
[1] = test system: MCF-7 cells; experiment: Antiproliferation assay (MTT); format: cell-based; conditions: Homo sapiens, MCF7, 168 h, 7-day incubation, read-out: Cytotoxicity EC50
Method: (§1) Antiproliferation assay. Proliferation inhibition assays for suspension blood cancer cells were performed using an XTT assay kit (Roche). Proliferation inhibition assays for solid tumor cell lines MCF-7, MDA-MB-231, Panc1, Panc28 were performed using an MTT assay (Sigma). The antiproliferation EC50 values were determined using Prism 5 and the reported results were the mean values of at least three independent experiments. The incubation time for compound 1 was 7 days and that for EPZ4777 was 14 days.

[2] = test system: MDA-MB-231 cells; experiment: Antiproliferation assay (MTT); format: cell-based; conditions: Homo sapiens, 168 h, 7-day incubation, read-out: Cytotoxicity EC50
Method: as §1

[3] = test system: Panc-28 cells; experiment: Antiproliferation assay (MTT); format: cell-based; conditions: 168 h, 7-day incubation, read-out: Cytotoxicity EC50
Method: as §1

[4] = test system: Panc-1 cells; experiment: Antiproliferation assay (MTT); format: cell-based; conditions: Homo sapiens, 168 h, 7-day incubation, read-out: Cytotoxicity EC50
Method: as §1

[5] = test system: H3K79me2 at gene promoters in Molm-13 cells; experiment: Chromatin immunoprecipitation (ChIP)-qPCR; format: cell-based
Method: Next, compound 1 was tested for its ability to change expression of characteristic MLL-r leukemia genes HoxA9, Meis1 and Myc. Myc is also overexpressed in a broad range of AML and other cancers. […] (Figure S5), presumably because SEC is not recruited there.
Chromatin immunoprecipitation. […] Cells were lysed with nuclear lysis buffer and sonicated to ~100-1000 bp fragments, which was incubated at 4 °C overnight with the H3K79me2 antibody (#5427, Cell signaling) and IgG (C15410206, Diagenode). Protein A/G Magnetic Beads (10 µL, Novus Biologicals) were added and incubated for 2 h. The beads were washed 3x with RIPA buffer and 2x with TE buffer. DNA on the beads was eluted for 2 hours at 68 °C in 100 μL of an elution buffer (20 mM Tris pH 7.5, 5 mM EDTA, 50 mM NaCl, 1% SDS, 50 μg/ml proteinase K) (2x), and purified using a ChIP DNA Clean & Concentrator kit (Novus Biologicals). qPCR was done using the method described above.

[6] = test system: AF9/ENL-DOT1L/AF4/AFF4 interactions; experiment: Biochemical assays of PPIs between AF9/ENL and DOT1L/AF4/AFF4 (overall); format: binding, human; conditions: for IC50: range over the PPIs tested, read-out: IC50s against AF9/ENL-DOT1L/AF4/AFF4 interactions (range over PPIs)
Method: Because both FP and Alpha assays are unsuitable for studies of AF9/ENL binding kinetics, we compared the IC50s of the inhibitor with the Kds of the PPIs (Table 1).
Alpha assays. Alpha assays were developed using Perkin-Elmer AlphaLisa anti-MBP kit, which contains streptavidin donor beads and anti-MBP acceptor beads. The assay was performed using a MBP-protein (5 nM), a biotinylated peptide (40 nM), and increasing concentrations of a compound in 25 µL buffer (PBS with 0.5 % BSA, pH 7.5) in 384-well plates according to the manufacturer's protocol and measured with a Tecan SPARK microplate reader. Data were imported into Prism (version 5.0), and IC50 values from 3 independent experiments with standard deviation were obtained by using a standard dose-response curve fitting.
Fluorescence polarization assay. It was performed in 96-well black microplates with each well containing a Fluorescein-labeled peptide (2 nM) and increasing concentration of a AF9/ENL protein in a buffer (20 mM HEPES, pH 7.5, 0.01% Triton X-100, 100 µL) for Kd determination. For IC50 determination, a Fluorescein-labeled peptide (2 nM), AF9/ENL protein (100 nM) and increasing concentration of a compound in the same buffer were placed in each well. Upon incubation of 1h, the FP value of each well was determined using a Tecan SPARK microplate reader. Data were similarly processed to obtain Kd or IC50 values.

[7] = molecular target: p300 (Homo sapiens, UniProt Q09472); experiment: p300 histone acetyltransferase inhibition; format: biochemical; conditions: at 100 µM (Figure S3: 30 or 100 µM)
Sequence of p300 (Q09472 whole entry, species assumed): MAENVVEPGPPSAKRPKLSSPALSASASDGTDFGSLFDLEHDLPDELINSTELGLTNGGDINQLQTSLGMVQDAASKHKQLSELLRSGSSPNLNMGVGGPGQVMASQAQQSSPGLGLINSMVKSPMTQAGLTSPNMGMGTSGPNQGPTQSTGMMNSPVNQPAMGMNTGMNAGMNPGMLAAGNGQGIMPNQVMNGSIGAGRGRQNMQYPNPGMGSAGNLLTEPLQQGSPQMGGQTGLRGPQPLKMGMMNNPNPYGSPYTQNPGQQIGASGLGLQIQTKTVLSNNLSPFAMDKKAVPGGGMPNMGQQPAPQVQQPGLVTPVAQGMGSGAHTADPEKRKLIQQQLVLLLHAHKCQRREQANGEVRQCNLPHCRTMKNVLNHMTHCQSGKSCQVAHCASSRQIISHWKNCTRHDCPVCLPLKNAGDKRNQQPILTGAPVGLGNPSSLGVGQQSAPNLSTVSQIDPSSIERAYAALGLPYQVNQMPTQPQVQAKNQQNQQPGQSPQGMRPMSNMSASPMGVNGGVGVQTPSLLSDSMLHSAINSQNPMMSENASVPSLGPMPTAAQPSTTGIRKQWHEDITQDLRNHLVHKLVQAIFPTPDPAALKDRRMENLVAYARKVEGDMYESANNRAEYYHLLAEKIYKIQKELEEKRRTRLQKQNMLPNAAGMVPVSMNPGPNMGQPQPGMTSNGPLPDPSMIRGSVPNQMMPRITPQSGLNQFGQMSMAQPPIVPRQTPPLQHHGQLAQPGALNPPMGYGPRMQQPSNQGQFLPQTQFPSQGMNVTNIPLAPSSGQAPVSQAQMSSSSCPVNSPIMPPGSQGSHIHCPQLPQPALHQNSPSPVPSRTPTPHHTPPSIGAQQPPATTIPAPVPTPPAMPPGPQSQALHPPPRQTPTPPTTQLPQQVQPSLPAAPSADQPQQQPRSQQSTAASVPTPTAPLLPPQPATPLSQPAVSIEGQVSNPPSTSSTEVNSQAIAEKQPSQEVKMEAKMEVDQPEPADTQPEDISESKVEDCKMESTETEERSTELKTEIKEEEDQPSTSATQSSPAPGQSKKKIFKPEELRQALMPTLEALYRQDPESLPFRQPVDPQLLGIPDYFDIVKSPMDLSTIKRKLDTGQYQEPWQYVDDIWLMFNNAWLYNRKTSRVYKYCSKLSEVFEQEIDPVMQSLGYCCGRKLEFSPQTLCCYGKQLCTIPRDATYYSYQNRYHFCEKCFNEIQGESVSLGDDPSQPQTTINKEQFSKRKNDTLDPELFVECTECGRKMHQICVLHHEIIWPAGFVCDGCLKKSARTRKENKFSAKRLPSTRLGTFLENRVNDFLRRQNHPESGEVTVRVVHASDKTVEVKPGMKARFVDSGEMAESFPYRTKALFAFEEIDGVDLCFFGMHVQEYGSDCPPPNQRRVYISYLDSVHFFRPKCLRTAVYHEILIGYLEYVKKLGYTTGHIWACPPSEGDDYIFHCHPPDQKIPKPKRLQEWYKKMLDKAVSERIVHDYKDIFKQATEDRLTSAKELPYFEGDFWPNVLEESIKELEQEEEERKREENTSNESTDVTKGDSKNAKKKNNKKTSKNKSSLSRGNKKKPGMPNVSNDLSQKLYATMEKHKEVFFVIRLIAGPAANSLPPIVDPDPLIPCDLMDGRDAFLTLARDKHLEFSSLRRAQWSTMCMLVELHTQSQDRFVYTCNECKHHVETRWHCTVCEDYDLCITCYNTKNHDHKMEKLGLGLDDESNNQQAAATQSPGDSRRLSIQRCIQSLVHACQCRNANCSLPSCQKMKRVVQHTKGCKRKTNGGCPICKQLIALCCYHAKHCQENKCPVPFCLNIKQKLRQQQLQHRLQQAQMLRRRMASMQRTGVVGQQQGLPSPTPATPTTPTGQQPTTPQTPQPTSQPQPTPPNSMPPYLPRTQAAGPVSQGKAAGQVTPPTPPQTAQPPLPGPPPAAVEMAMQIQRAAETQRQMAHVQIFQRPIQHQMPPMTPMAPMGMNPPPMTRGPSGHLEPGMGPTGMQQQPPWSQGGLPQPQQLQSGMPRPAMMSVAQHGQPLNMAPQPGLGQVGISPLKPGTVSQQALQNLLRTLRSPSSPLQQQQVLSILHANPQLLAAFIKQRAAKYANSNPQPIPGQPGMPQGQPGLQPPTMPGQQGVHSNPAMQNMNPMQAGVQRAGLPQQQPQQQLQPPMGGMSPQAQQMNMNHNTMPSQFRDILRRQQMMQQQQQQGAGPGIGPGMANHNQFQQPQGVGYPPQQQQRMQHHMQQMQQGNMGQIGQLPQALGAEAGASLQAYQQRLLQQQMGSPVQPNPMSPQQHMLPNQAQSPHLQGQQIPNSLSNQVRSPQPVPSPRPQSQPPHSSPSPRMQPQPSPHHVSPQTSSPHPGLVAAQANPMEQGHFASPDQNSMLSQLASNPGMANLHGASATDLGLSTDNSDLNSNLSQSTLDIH
Method: Inhibition of DOT1L, LSD1 and p300 was performed using our previously reported methods, [37], [38].
LSD1, and p300 histone acetyltransferase at 30 or 100 µM, using our previous reported methods [Ref. 36, 37,
(1 picture or pasted object on this page, not shown here)

[8] = test system: MLL-r leukemia cells; experiment: Cytospin/Wright-Giemsa staining; format: cell-based; conditions: 5 μM for 5 days
Method: Cytospin/Wrigth-Giemsa staining. The MV4;11 and Molm-13 cells were plated in 6-well plates (2.5 mL/well) at an initial concentration of 10^5 cells/mL and treated with a compound or DMSO at 37 °C in a 5% CO2 incubator for 5 days. Cytospins were performed to smear cells (100 µL, 10^6 cells/mL) on slide. After air dry, the slides were Wright's-Giemsa stained and air-dried for over 30 mins before examination.

[9] = test system: MV4;11 leukemia xenograft; experiment: Subcutaneous MV4;11 xenograft antitumor study; format: in vivo, NOD-SCID mice; conditions: 15 mg/kg/day i.p. for 10 days; two cohorts (N = 6 and 8; p < 0.01 and 0.05)
Method: In vivo antitumor activity of compound 1 was evaluated in a commonly used mouse model of MLL-r leukemia, [26]. 10^7 MV4;11 cells in 0.1 mL of saline and Matrigel (1:1) were injected subcutaneously into NOD-SCID mice, which can develop palpable tumors in ~2 weeks.
In vivo antitumor studies. All of the mouse studies were conducted in strict compliance with an IRB-approved protocol. NOD-SCID mice (4 to 6 weeks old, from Jackson lab) were obtained and maintained under specific pathogen-free conditions. 10^7 MV4;11 cells in medical grade saline and Matrigel (1:1, 0.1 mL) were inoculated subcutaneously and palpable tumors (2-3 mm in diameter) were developed in ~ 2 weeks. Mice were treated with compound 1 (15 mg/kg/day for 10 days) in saline (0.1 mL) administered intraperitoneally. Tumors were measured every 2 days and estimated by using the formula a×b^2/2.

[10] = test system: MLL-AF9-bound DOT1L and AF4 in Molm-13 cells; experiment: Co-immunoprecipitation with N-terminal MLL antibody; format: cell-based; conditions: 2 days
Method: Next, we investigated how compound 1 affects these transcription cofactors in the nucleus, where they regulate gene expression. […] DOT1L inhibitor EPZ4777 [25] reduced the methylation levels of H3K79, but not other proteins (Figure 3B). […] In this regard, despite lack of activity against DOT1L, compound 1 can mimic EPZ4777 to reduce H3K79 methylation.
Co-immunoprecipitation. 10^8 Molm-13 cells were treated with a compound or DMSO for 48 hr. Co-immunoprecipitation of the nuclear protein extracts (450 µg of total protein from 10^8 molm-13 cells) was performed using a Nuclear Complex Co-IP Kit (#54001, Active Motif). Briefly, 3 µg of MLL-N Rabbit mAb (#14689, Cell signaling) and 100 µL Protein G Agarose Beads (#37478, Cell signaling) were added and incubated with the nuclear extractions overnight at 4 °C. The Agarose beads with captured antibody and relevant protein complexes were isolated, washed and subjected to Western blot for protein detection.

Structure (SMILES): CC(C)(C)c1ccc(-n2cc(C(=O)NC3CCNCC3)nc2-c2ccccc2)cc1 [Compound 1]
- EC50 [1]: 19.8 ± 0.3 µM
- EC50 [2]: 13.5 ± 0.2 µM
- EC50 [3]: 23.8 ± 0.2 µM
- EC50 [4]: 15.1 ± 0.2 µM
- H3K79-Me2 in a non-transcribed DNA region [5]: did not significantly reduce H3K79-Me2
- H3K79me2 in the gene promoters of HoxA9 and Myc ([5]; 5 μM for 4 days): decreased levels of H3K79me2
- Mode of inhibition ([6]; comparison of IC50s with Kds of the PPIs): non-competitive mode of inhibition
- IC50 ([6]; listed as Compound-1): 0.9 to 3.5 µM
- IC50 [6]: 0.94 to 3.5 µM
- Inhibition of p300 histone acetyltransferase activity [7]: did not significantly inhibit
- Cell phenotype by Giemsa staining [8]: more differentiated phenotype with reduced nucleus
- Tumor growth [9]: significantly inhibited tumor growth
- MLL-AF9-bound DOT1L and AF4 (Co-IP) [10]: dose-dependent decrease of MLL-AF9-bound DOT1L and AF4
